Laboratory results from ChEMBL document CHEMBL4837198, “Design, synthesis and biological evaluation of 1H-indazole derivatives as novel ASK1 inhibitors” (Eur J Med Chem, 2021).
Active and inactive are the calls of the source. The rule behind the calls is not given here.

Experiments:
[1] = target: T1, Mitogen-activated protein kinase kinase kinase 5 (Homo sapiens, UniProt Q99683); test: Inhibition of human full length recombinant ASK1 using STK-Substrate-3 biotin as substrate in presence of ATP measured after 2 hrs by […] kinase assay
T1 sequence (Q99683 whole entry): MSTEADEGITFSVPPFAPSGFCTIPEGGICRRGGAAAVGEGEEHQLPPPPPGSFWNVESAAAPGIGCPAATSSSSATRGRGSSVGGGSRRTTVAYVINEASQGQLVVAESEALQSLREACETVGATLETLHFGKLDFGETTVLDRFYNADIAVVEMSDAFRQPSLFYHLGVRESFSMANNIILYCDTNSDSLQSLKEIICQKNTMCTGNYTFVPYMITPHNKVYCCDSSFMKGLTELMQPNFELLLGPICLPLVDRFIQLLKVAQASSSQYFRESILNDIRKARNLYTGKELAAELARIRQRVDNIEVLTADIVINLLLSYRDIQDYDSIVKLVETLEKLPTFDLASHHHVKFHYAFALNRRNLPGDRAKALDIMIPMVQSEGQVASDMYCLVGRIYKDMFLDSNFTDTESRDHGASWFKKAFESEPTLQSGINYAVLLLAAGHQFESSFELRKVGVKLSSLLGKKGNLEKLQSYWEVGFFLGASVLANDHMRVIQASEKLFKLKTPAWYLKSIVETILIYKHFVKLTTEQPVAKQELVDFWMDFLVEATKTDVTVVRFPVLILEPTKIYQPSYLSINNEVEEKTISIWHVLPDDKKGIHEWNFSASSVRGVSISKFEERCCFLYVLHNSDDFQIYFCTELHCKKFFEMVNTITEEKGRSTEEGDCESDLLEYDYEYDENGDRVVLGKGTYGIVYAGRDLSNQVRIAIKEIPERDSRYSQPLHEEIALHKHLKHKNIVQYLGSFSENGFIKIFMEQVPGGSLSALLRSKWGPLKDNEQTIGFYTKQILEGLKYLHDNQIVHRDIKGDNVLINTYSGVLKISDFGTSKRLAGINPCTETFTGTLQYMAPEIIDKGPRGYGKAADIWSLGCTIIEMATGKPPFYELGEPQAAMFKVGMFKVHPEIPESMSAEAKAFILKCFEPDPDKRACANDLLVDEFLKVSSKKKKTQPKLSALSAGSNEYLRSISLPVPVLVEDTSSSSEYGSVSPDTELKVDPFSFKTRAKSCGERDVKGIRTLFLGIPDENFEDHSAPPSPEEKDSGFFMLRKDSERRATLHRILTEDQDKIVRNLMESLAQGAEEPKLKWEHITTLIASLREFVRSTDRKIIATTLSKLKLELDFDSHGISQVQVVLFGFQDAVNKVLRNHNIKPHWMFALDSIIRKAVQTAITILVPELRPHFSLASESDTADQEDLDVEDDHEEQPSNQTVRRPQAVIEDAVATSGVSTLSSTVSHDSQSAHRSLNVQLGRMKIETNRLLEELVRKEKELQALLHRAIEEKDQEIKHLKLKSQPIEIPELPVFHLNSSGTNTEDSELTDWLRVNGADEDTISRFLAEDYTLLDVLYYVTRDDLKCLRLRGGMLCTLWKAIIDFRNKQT

[2] = system: HT-29; test: Antiapoptotic activity against in human HT-29 cells assessed as inhibition of TNFalpha-induced caspase 3 activity by Western blot analysis; format: functional, cell-based
[3] = system: HT-29; test: Induction cell survival in TNFalpha-induced human HT-29 cells at 10 uM pretreated for 24 hrs followed by TNFalpha stimulation measured after 2 hrs by CCK8 assay; format: functional, cell-based
[4] = system: HT-29; test: Cytotoxicity against human HT-29 cells assessed as cell survival at 25 uM incubated for 24 hrs by CCK8 assay; format: cell-based; settings: ht-29, 24 h
[5] = system: HT-29; test: Antiapoptotic activity against in human HT-29 cells assessed as inhibition of TNFalpha-induced Bax/ Bcl2 ratio by Western blot analysis; format: functional, cell-based
[6] = system: HT-29; test: Antiinflammatory activity in human HT-29 cells assessed as suppression of […]-stimulated p-P38 expression by Western blot analysis; format: functional, cell-based
[7] = system: HT-29; test: Antiinflammatory activity in human HT-29 cells assessed as suppression of […]-stimulated p-ASK1 expression by Western blot analysis; format: functional, cell-based
[8] = target: T1, Mitogen-activated protein kinase kinase kinase 5; test: Inhibition of ASK1 in human HEK293 cells transfected with AP1 assessed as inhibition of AP1-induced firefly luciferase activity preincubated for 1 hr followed by PMA stimulation and measured after 6 hrs by luciferase reporter assay; format: cell-based
[9] = system: HT-29; test: Antiapoptotic activity against in human HT-29 cells assessed as inhibition of TNFalpha-induced down regulation of Bcl2 expression by Western blot analysis; format: functional, cell-based
[10] = system: HT-29; test: Antiapoptotic activity against in human HT-29 cells assessed as inhibition of TNFalpha-induced upregulation of Bax expression by Western blot analysis; format: functional, cell-based
[11] = system: HT-29; test: Antiinflammatory activity in human HT-29 cells assessed as suppression of […]-stimulated p-JNK expression by Western blot analysis; format: functional, cell-based

IC50 [1] [nM] | IC50 [8] [nM] | SMILES | also measured
144 |  | CC(C)n1cnnc1-c1ccc2[nH]nc(-c3cccc(C(=O)Nc4cnn(C)c4)c3)c2c1 | 
74.2 |  | CC(C)n1cnnc1-c1ccc2[nH]nc(-c3cccc(C(N)=O)c3)c2c1 | 
29.9 | 4460 | CCOC(C)n1cc(-c2cccc(-c3n[nH]c4ccc(-c5nncn5C(C)C)cc34)c2)cn1 (stereo unspecified) | Activity [2]: Active; Activity [3]: Active; Activity [4]: Non-Toxic; Activity [5]: Active; Activity [6]: Active; Activity [7]: Active; Activity [9]: Active; Activity [10]: Active; Activity [11]: Active
48.6 | 11300 | COc1cc(-c2n[nH]c3ccc(-c4nncn4C(C)C)cc23)cc(-n2cnc(C3CC3)c2)c1 | 
56.9 | 8730 | Cc1ccc(-c2n[nH]c3ccc(-c4nncn4C(C)C)cc23)cc1-n1cnc(C2CC2)c1 | 
270 |  | COc1ccc(-n2cnc(C3CC3)c2)cc1-c1n[nH]c2ccc(-c3nncn3C(C)C)cc12 | 
277 |  | CCOC(C)n1cc(-c2cncc(-c3n[nH]c4ccc(-c5nncn5C(C)C)cc34)c2)cn1 (stereo unspecified) | 
62.2 |  | CC(C)n1cnnc1-c1ccc2[nH]nc(-c3cccc(-n4cnc(C5CC5)c4)c3)c2c1 | 
37 | 8880 | CC(C)n1cnnc1-c1ccc2[nH]nc(-c3cccc(-n4cnc(C5CC5)n4)c3)c2c1 | 
19.8 |  | CCS(=O)(=O)Nc1cccc(-c2n[nH]c3ccc(-c4nncn4C(C)C)cc23)c1 | 
26.9 | 9810 | COCn1cc(-c2cccc(-c3n[nH]c4ccc(-c5nncn5C(C)C)cc34)c2)cn1 | 
532 |  | O=C(Nc1cccc(-c2n[nH]c3ccc(-c4nnc[nH]4)cc23)c1)c1ccc(C(F)(F)F)cc1 | 
50.1 | 12100 | CC(C)n1cnnc1-c1ccc2[nH]nc(-c3cccc(-c4cnn(C5CCOCC5)c4)c3)c2c1 | 
283 |  | CC(C)n1cnnc1-c1ccc2[nH]nc(-c3cccc(-c4cccnc4)c3)c2c1 | 
70 | 7280 | c1cc(-c2n[nH]c3ccc(-c4nncn4C4CCC4)cc23)cc(-n2cnc(C3CC3)c2)c1 | 
31.8 | 11600 | CC(C)n1cnnc1-c1ccc2[nH]nc(-c3ccc(N4CCOCC4)c(-n4cnc(C5CC5)c4)c3)c2c1 | 
197 |  | CC(C)n1cnnc1-c1ccc2[nH]nc(-c3cccc(NC(=O)c4ccc(C(F)(F)F)cc4)c3)c2c1 | 
 |  | Cc1cc(F)c(C(=O)Nc2cccc(-c3nncn3C(C)C)n2)cc1-n1cnc(C2CC2)c1 [SELONSERTIB] | Activity [2]: Active; Activity [3]: Active; Activity [4]: Non-Toxic; Activity [5]: Active; Activity [6]: Active; Activity [7]: Active; Activity [9]: Active; Activity [10]: Active; Activity [11]: Active
63.6 | 8330 | CC(C)n1cnnc1-c1ccc2[nH]nc(-c3cccc(-c4cnn(C)c4)c3)c2c1 | 
50 | 7040 | c1cc(-c2n[nH]c3ccc(-c4nncn4C4CC4)cc23)cc(-n2cnc(C3CC3)c2)c1 | 
245 |  | COCCNC(=O)c1cccc(-c2n[nH]c3ccc(-c4nncn4C(C)C)cc23)c1 | 
275 |  | c1cc(-c2n[nH]c3ccc(-c4cn[nH]c4)cc23)cc(-n2cnc(C3CC3)c2)c1 | 
271 |  | CC(C)n1cnnc1-c1ccc2[nH]nc(-c3cccc(C(=O)NC4CC4)c3)c2c1 | 
54.1 | 5500 | c1cc(-c2n[nH]c3ccc(-c4nncn4C4CCCC4)cc23)cc(-n2cnc(C3CC3)c2)c1 | 
733 |  | CC(C)n1cnnc1-c1ccc2[nH]nc(-c3cccc(S(C)(=O)=O)c3)c2c1 | 
855 |  | CC(C)n1cnnc1-c1ccc2[nH]nc(-c3cccc(-c4ccnn4C)c3)c2c1 | 
243 |  | c1cc(-c2n[nH]c3ccc(-c4nncn4C4CCCCC4)cc23)cc(-n2cnc(C3CC3)c2)c1 | 
75.1 |  | CC(C)n1cnnc1-c1ccc2[nH]nc(-c3cc(N4CCOCC4)cc(-n4cnc(C5CC5)c4)c3)c2c1 | 
